Here are results for 15 compounds from publication PMC7070694, “Identification of New Peptides from Fermented Milk Showing Antioxidant Properties: Mechanism of Action” (Antioxidants, 2020).

Peptide text beside a SMILES is read from it.

One data set has as its system Caco-2 cell monolayer. In words: Transepithelial transport through Caco-2 cell monolayers (Transwell). The data set is classed as in vitro ADME. The settings on record: Caco-2 monolayer on Transwell, 21 days, TEER > 1100 Ω × cm^2, 75 µg peptide in 0.75 mL HBSS apical, 37 °C, RP-HPLC UV 220 nm, mean ± SD, n. d. = not detected with RP-HPLC; for RP-HPLC Estimation AP (%): 120 min after 30 min equilibration, apical compartment, % of total peptide added; for RP-HPLC Estimation BL (%): A-B, 120 min, basolateral compartment, % of initial peptide added apically. How it is done:
Caco-2 cells were obtained from DISCOG (University of Padova, Padova, Italy). The cells cultured in DMEM (high glucose) supplemented with 10% FBS, were used between 35 and 60 passages. In order to perform transepithelial transport, 8 × 10^4 cells were seeded on Transwell^© cell culture inserts (0.4 µm pore sizes, 12 mm diameter, 1.12 cm^2 grown surface; Corning Life Sciences, Tewksbury, MA, USA). Cells were grown, differentiated for 21 days and the monolayer integrity was estimated by transepithelial electrical resistance (TEER) (Millicell® ERS-2 volt-ohmmeter, EDM Millipore, Darmstadt, Germany) showing values higher than 1100 Ω × cm^2.
The intestinal barrier crossing capacity of the fractions or synthetic peptides through Caco-2 cells monolayer was evaluated using Transwell® insert model according to Tonolo et al.. Briefly, after 21 days of culturing, Caco-2 cells differentiated forming a monolayer that delimited an upper part (apical compartment) and lower part (basolateral compartment). The monolayer was rinsed three times with Hank’s balanced salt solution (HBSS) and 10 mM D-glucose and equilibrated for 30 min at 37 °C. After, cells were incubated in the presence of 0.75 mL HBSS containing 150 µg fraction or 75 µg peptide in the apical chamber at 37 °C for 120 min. Samples collected from both compartments (apical and basolateral) at different times were centrifuged at 11,600× g, filtered with 0.45 µm filter, frozen and lyophilized. Subsequently, the obtained samples were dissolved in 100 µL of 0.1% TFA aqueous solution and evaluated by RP-HPLC and Matrix assisted laser desorption/ionization- time of flight/time of flight mass spectrometry (MALDI-TOF/TOF MS).
The apical and basolateral compartments were evaluated in RP-HPLC using a column Onyx Monolithic C18 100 mm × 4.6 mm, LC column (Phenomenex, Torrance, CA, USA) with a Waters 2695 Separation Module (Milfold, MA, USA) with a Waters 996 Photodiode Array Detector. Separations were performed with a linear gradient from 0–60% ACN in the presence of 0.1% TFA over 20 min at a constant flow rate of 2 mL/min monitoring the peaks by UV detection (λ = 220 nm).
Subsequently, the obtained fractions were analysed with a MALDI-TOF/TOF 4800 mass spectrometer (AB Sciex, Framingham, MA, USA). After an initial full MS scan, enlargements on the MS signals of interest were acquired. For the basolateral fractions, the samples, after lyophilisation, were dissolved in 50 µL of 25% ACN and 0.1% TFA. The analysis was then performed on 2 µL of these solutions mixed with 2 µL of peptide MALDI matrix α-cyano-4-hydroxycynnamic acid (10 mg/mL aqueous 70% acetonitrile/0.1% TFA). The following analytical conditions were set for MALDI-TOF spectra acquisition: positive ion reflector mode, initial mass range 500–3500 Da (the mass range was then adapted for each enlargement), variable laser intensity (3000–3800), shots/sub-spectrum 50, total shots/spectrum 1500 and accelerating voltage of 20 kV. Final data analysis and fragments identification were done on Data Explorer software (AB Sciex, Framingham, MA, USA), utilizing external mass calibration performed with mass peptide standards (Sigma-Aldrich, St Louis, MO, USA).
In order to evaluate the intestinal crossing capacity of the four peptides, Transwell® insert model peptide absorption, was performed. […] After 10 min and 120 min, apical and basolateral compartments were collected and analyzed by RP-HPLC and mass spectrometry.

Data set [1] is described as follows: MTT cell viability (cytotoxicity). It counts as cell-based. The settings on record: human, Caco-2 cells (1 × 10^4), synthetic peptides 0.05 mg/mL, no TbOOH, mean ± SD of at least three experiments, read-out: Percentage of Cell Viability, None (c).

Take `CC[C@H](C)[C@H](NC(=O)[C@@H]1CCCN1C(=O)[C@H](CC(N)=O)NC(=O)[C@@H]1CCCN1C(=O)[C@@H](NC(=O)[C@H](CC(=O)O)NC(=O)[C@H](CO)NC(=O)[C@H](Cc1ccccc1)NC(=O)[C@H](CO)NC(=O)[C@@H]1CCCN1C(=O)[C@H](C)N)[C@@H](C)CC)C(=O)NCC(=O)N[C@@H](CO)C(=O)N[C@@H](CCC(=O)O)C(=O)N[C@@H](CC(N)=O)C(=O)N[C@@H](CO)C(=O)O` [A-16-S] (H-APSFSDIPNPIGSENS-OH): the “RP-HPLC Estimation AP (%)” value in the data set on Caco-2 cell monolayer is 3.22 ± 0.00%.

For the compound `CC[C@H](C)[C@H](NC(=O)[C@@H]1CCCN1C(=O)[C@H](CC(N)=O)NC(=O)[C@@H]1CCCN1C(=O)[C@@H](NC(=O)[C@H](CC(=O)O)NC(=O)[C@H](CO)NC(=O)[C@H](Cc1ccccc1)NC(=O)[C@H](CO)NC(=O)[C@@H]1CCCN1C(=O)[C@H](C)N)[C@@H](C)CC)C(=O)NCC(=O)N[C@@H](CO)C(=O)N[C@@H](CCC(=O)O)C(=O)N[C@@H](CC(N)=O)C(=O)N[C@@H](CO)C(=O)N[C@@H](CCC(=O)O)C(=O)O` [A-17-E] (H-APSFSDIPNPIGSENSE-OH), in the data set on Caco-2 cell monolayer, the “RP-HPLC Estimation AP (%)” value is recorded as 68.4 ± 4.6% and the “RP-HPLC Estimation BL (%)” value is on record as 0.05 ± 0.03%. Also, the viability at 24 h, 50 µg/mL in data set [1] was found to be 108 ± 13.2%. Consider `CC[C@H](C)[C@H](N)C(=O)N[C@H](C(=O)N[C@@H](CC(C)C)C(=O)N[C@@H](CC(N)=O)C(=O)N1CCC[C@H]1C(=O)N[C@@H](Cc1c[nH]c2ccccc12)C(=O)N[C@@H](CC(=O)O)C(=O)N[C@@H](CCC(N)=O)C(=O)N[C@H](C(=O)N[C@@H](CCCCN)C(=O)N[C@@H](CCCNC(=N)N)C(=O)O)C(C)C)C(C)C` [I-11-R] (H-IVLNPWDQVKR-OH), for which the “RP-HPLC Estimation AP (%)” value in the data set with Caco-2 cell monolayer is given as 1.47 ± 0.19%. `CC[C@H](C)[C@H](NC(=O)[C@H](CCCCN)NC(=O)[C@H](CC(=O)O)NC(=O)[C@H](CCC(N)=O)NC(=O)[C@H](CC(C)C)NC(=O)[C@H](CCC(=O)O)NC(=O)[C@@H](N)CC(=O)O)C(=O)N[C@@H](Cc1c[nH]cn1)C(=O)N1CCC[C@H]1C(=O)N[C@@H](Cc1ccccc1)C(=O)O` [D-10-F] (H-DELQDKIHPF-OH): the “RP-HPLC Estimation AP (%)” value in the data set with Caco-2 cell monolayer is 4.17 ± 0.27%. On to `CC[C@H](C)[C@H](NC(=O)[C@@H]1CCCN1C(=O)CNC(=O)[C@@H](N)CCC(N)=O)C(=O)N[C@H](C(=O)N[C@@H](CC(C)C)C(=O)N[C@@H](CC(N)=O)C(=O)N1CCC[C@H]1C(=O)N[C@@H](Cc1c[nH]c2ccccc12)C(=O)N[C@@H](CC(=O)O)C(=O)N[C@@H](CCC(N)=O)C(=O)N[C@H](C(=O)N[C@@H](CCCCN)C(=O)N[C@@H](CCCNC(=N)N)C(=O)O)C(C)C)C(C)C` [Q-14-R] (H-QGPIVLNPWDQVKR-OH), for which, in the data set with Caco-2 cell monolayer, the “RP-HPLC Estimation AP (%)” value is 87.59 ± 12.18% and the “RP-HPLC Estimation BL (%)” value is recorded as 0.02 ± 0.01%. Also, the viability at 24 h, 50 µg/mL in data set [1] turned out to be 115 ± 15.6%. Regarding `CC[C@H](C)[C@H](NC(=O)[C@@H]1CCCN1C(=O)[C@H](CC(N)=O)NC(=O)[C@@H]1CCCN1C(=O)[C@@H](NC(=O)[C@H](CC(=O)O)NC(=O)[C@H](CO)NC(=O)[C@@H](N)Cc1ccccc1)[C@@H](C)CC)C(=O)NCC(=O)N[C@@H](CO)C(=O)N[C@@H](CCC(=O)O)C(=O)N[C@@H](CC(N)=O)C(=O)N[C@@H](CO)C(=O)N[C@@H](CCC(=O)O)C(=O)O` [F-14-E] (H-FSDIPNPIGSENSE-OH), the “RP-HPLC Estimation AP (%)” value with Caco-2 cell monolayer is on record as 3.07 ± 0.60%. Still for that read-out and setting: under `CC(C)[C@H](NC(=O)[C@H](CCC(N)=O)NC(=O)[C@H](CC(=O)O)NC(=O)[C@H](Cc1c[nH]c2ccccc12)NC(=O)[C@@H]1CCCN1C(=O)[C@@H](N)CC(N)=O)C(=O)N[C@@H](CCCCN)C(=O)N[C@@H](CCCNC(=N)N)C(=O)O` [N-8-R] (H-NPWDQVKR-OH) stands 0.55 ± 0.15%. `CC[C@H](C)[C@H](NC(=O)[C@@H]1CCCN1C(=O)CNC(=O)[C@@H](N)CCC(N)=O)C(=O)N[C@H](C(=O)N[C@@H](CC(C)C)C(=O)N[C@@H](CC(N)=O)C(=O)N1CCC[C@H]1C(=O)N[C@@H](Cc1c[nH]c2ccccc12)C(=O)N[C@@H](CC(=O)O)C(=O)N[C@@H](CCC(N)=O)C(=O)N[C@H](C(=O)N[C@@H](CCCCN)C(=O)O)C(C)C)C(C)C` [Q-13-K] (H-QGPIVLNPWDQVK-OH): the “RP-HPLC Estimation BL (%)” value with Caco-2 cell monolayer was 0.07 ± 0.05%.

As to `CSCC[C@H](NC(=O)[C@@H](NC(=O)[C@@H](NC(=O)[C@@H]1CCCN1C(=O)[C@H](CCC(N)=O)NC(=O)[C@H](C)NC(=O)[C@H](CCC(N)=O)NC(=O)[C@H](CS)NC(=O)[C@@H](N)CO)[C@@H](C)O)[C@@H](C)O)C(=O)O` [S-9-M] (H-SCQAQPTTM-OH), the “RP-HPLC Estimation BL (%)” value with Caco-2 cell monolayer is reported as 0.12 ± 0.03%. Consider `CC[C@H](C)[C@H](NC(=O)[C@@H]1CCCN1C(=O)CN)C(=O)N[C@H](C(=O)N[C@@H](CC(C)C)C(=O)N[C@@H](CC(N)=O)C(=O)N1CCC[C@H]1C(=O)N[C@@H](Cc1c[nH]c2ccccc12)C(=O)N[C@@H](CC(=O)O)C(=O)N[C@@H](CCC(N)=O)C(=O)N[C@H](C(=O)N[C@@H](CCCCN)C(=O)N[C@@H](CCCNC(=N)N)C(=O)O)C(C)C)C(C)C` [G-13-R] (H-GPIVLNPWDQVKR-OH), for which the “RP-HPLC Estimation AP (%)” value in the data set with Caco-2 cell monolayer was 3.19 ± 0.27%.

As for `CSCC[C@H](NC(=O)[C@@H](NC(=O)[C@@H](NC(=O)[C@@H]1CCCN1C(=O)[C@H](CCC(N)=O)NC(=O)[C@H](C)NC(=O)[C@H](CCC(N)=O)NC(=O)[C@H](CS)NC(=O)[C@H](CO)NC(=O)[C@H](CCCCN)NC(=O)[C@H](C)NC(=O)[C@@H]1CCCN1C(=O)[C@@H](N)C(C)C)[C@@H](C)O)[C@@H](C)O)C(=O)O` [V-13-M] (H-VPAKSCQAQPTTM-OH), the “RP-HPLC Estimation AP (%)” value with Caco-2 cell monolayer was 2.21 ± 0.53%. `CSCC[C@H](NC(=O)[C@@H](NC(=O)[C@@H](NC(=O)[C@@H]1CCCN1C(=O)[C@H](CCC(N)=O)NC(=O)[C@H](C)NC(=O)[C@H](CCC(N)=O)NC(=O)[C@H](CS)NC(=O)[C@H](CO)NC(=O)[C@H](CCCCN)NC(=O)[C@H](C)N)[C@@H](C)O)[C@@H](C)O)C(=O)O` [A-11-M] (H-AKSCQAQPTTM-OH): in the data set with Caco-2 cell monolayer, the “RP-HPLC Estimation AP (%)” value is on record as 44.96 ± 9.09% and the “RP-HPLC Estimation BL (%)” value was 0.16 ± 0.02%.

`CC[C@H](C)[C@H](NC(=O)[C@H](CCCCN)NC(=O)[C@H](CC(=O)O)NC(=O)[C@H](CCC(N)=O)NC(=O)[C@H](CC(C)C)NC(=O)[C@H](CCC(=O)O)NC(=O)[C@H](CC(=O)O)NC(=O)[C@@H](N)CCC(=O)O)C(=O)N[C@@H](Cc1c[nH]cn1)C(=O)N1CCC[C@H]1C(=O)N[C@@H](Cc1ccccc1)C(=O)O` [E-11-F] (H-EDELQDKIHPF-OH): in the data set on Caco-2 cell monolayer, the “RP-HPLC Estimation AP (%)” value is reported as 88.28 ± 5.89% and the “RP-HPLC Estimation BL (%)” value is on record as 0.21 ± 0.01%. Besides, the viability at 24 h, 50 µg/mL in data set [1] was determined as 112 ± 13.5%. Consider `CC[C@H](C)[C@H](NC(=O)[C@@H]1CCCN1C(=O)CNC(=O)[C@@H](N)CCC(N)=O)C(=O)N[C@H](C(=O)N[C@@H](CC(C)C)C(=O)N[C@@H](CC(N)=O)C(=O)N1CCC[C@H]1C(=O)N[C@@H](Cc1c[nH]c2ccccc12)C(=O)N[C@@H](CC(=O)O)C(=O)N[C@@H](CCC(N)=O)C(=O)O)C(C)C` [Q-11-Q] (H-QGPIVLNPWDQ-OH), for which the “RP-HPLC Estimation BL (%)” value in the data set with Caco-2 cell monolayer is 0.11 ± 0.01%.

With `CC[C@H](C)[C@H](NC(=O)[C@@H]1CCCN1C(=O)[C@H](CC(N)=O)NC(=O)[C@@H]1CCCN1C(=O)[C@@H](NC(=O)[C@H](CC(=O)O)NC(=O)[C@H](CO)NC(=O)[C@H](Cc1ccccc1)NC(=O)[C@@H](N)CO)[C@@H](C)CC)C(=O)NCC(=O)N[C@@H](CO)C(=O)N[C@@H](CCC(=O)O)C(=O)N[C@@H](CC(N)=O)C(=O)N[C@@H](CO)C(=O)N[C@@H](CCC(=O)O)C(=O)O` [S-15-E] (H-SFSDIPNPIGSENSE-OH), in the data set with Caco-2 cell monolayer, the “RP-HPLC Estimation AP (%)” value is on record as 8.97 ± 0.53% and the “RP-HPLC Estimation BL (%)” value was 0.30 ± 0.07%.

In general, viability refers to a read-out of living cells in per cent, often relative to untreated cells.
